In patent publication US20240398811A1, “PRC2 INHIBITORS FOR USE IN TREATING BLOOD DISORDERS” (ORIC Pharmaceuticals, Inc., priority 2021, published 2024) one finds IC50 data, which are given here for 29 molecules.

Each structure is given as a SMILES string. Some results are limits rather than exact numbers.

The target in this assay is purified human, His-tagged PRC2 complex (Homo sapiens (Human), UniProt O75530). In words: Hot Spot HMT assay, inhibition of PRC2 enzymatic activity. The class given is biochemical. As to conditions: 10 nM PRC2 complex, 1 μM 3H-SAM, core histone H3, 10-point dose-response. The method in brief: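 Five-subunit PRC2 complex (EZH2, EED, SUZ12, AEBP2, RbAp48; 10 nM) preincubated 20 min at 30° C with compound (top 1.0 μM) and 0.05 mg/ml core histone H3 in Tris-HCl, 1% DMSO. Started with 1 μM [3H]SAM, 1 hr at 30° C; tritiated H3 measured by filter binding and scintillation.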
Chain of purified human, His-tagged PRC2 complex (O75530 whole entry): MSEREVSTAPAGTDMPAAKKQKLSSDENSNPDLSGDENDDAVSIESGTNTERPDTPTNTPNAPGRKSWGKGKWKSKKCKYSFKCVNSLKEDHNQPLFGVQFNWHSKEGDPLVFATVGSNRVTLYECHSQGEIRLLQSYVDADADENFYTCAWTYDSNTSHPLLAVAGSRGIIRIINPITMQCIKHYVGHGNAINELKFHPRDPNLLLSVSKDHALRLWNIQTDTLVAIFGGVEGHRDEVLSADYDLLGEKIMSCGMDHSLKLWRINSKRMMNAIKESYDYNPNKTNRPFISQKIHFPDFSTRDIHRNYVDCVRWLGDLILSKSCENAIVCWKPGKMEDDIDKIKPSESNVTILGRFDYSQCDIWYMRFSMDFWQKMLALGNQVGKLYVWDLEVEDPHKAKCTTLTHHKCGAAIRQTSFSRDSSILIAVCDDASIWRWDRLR
Chain of purified human, His-tagged PRC2 complex (Q15910 whole entry partner): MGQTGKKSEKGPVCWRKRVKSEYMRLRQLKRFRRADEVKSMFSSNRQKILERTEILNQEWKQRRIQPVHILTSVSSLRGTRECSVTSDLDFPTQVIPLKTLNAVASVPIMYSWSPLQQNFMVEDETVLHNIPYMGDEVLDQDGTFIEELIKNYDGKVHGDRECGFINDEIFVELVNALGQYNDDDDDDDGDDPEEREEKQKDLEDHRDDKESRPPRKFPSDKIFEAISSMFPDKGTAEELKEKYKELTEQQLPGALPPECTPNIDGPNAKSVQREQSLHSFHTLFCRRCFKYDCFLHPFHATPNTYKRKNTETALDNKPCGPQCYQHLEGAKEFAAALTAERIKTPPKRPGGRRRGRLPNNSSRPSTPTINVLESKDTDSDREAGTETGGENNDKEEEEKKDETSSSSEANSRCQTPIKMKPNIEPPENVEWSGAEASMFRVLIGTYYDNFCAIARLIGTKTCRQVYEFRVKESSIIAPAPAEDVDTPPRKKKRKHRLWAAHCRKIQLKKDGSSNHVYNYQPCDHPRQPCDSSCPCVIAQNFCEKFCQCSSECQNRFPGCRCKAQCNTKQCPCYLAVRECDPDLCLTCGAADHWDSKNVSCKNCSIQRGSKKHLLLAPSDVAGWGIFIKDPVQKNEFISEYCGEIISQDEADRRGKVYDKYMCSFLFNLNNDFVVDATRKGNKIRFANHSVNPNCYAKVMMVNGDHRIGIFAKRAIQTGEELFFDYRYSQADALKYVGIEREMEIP
Chain of purified human, His-tagged PRC2 complex (Q15022 whole entry partner): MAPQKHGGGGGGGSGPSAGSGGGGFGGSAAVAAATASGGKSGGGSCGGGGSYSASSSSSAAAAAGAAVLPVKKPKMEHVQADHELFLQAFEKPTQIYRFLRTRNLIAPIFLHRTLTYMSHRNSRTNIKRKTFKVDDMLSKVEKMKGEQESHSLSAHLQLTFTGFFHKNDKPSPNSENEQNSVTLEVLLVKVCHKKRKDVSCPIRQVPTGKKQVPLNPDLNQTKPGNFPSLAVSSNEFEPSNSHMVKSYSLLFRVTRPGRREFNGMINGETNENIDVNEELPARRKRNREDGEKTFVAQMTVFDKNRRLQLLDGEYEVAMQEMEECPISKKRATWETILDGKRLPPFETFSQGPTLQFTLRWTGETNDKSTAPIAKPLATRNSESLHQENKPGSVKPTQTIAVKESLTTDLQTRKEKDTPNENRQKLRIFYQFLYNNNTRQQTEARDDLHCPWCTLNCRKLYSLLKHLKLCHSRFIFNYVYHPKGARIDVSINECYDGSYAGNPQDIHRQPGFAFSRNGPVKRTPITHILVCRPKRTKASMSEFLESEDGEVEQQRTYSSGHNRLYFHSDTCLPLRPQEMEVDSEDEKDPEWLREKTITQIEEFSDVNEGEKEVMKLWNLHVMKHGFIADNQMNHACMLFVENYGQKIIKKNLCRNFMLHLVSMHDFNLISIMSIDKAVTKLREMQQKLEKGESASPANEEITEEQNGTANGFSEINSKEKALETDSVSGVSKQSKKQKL
Chain of purified human, His-tagged PRC2 complex (Q6ZN18 whole entry partner): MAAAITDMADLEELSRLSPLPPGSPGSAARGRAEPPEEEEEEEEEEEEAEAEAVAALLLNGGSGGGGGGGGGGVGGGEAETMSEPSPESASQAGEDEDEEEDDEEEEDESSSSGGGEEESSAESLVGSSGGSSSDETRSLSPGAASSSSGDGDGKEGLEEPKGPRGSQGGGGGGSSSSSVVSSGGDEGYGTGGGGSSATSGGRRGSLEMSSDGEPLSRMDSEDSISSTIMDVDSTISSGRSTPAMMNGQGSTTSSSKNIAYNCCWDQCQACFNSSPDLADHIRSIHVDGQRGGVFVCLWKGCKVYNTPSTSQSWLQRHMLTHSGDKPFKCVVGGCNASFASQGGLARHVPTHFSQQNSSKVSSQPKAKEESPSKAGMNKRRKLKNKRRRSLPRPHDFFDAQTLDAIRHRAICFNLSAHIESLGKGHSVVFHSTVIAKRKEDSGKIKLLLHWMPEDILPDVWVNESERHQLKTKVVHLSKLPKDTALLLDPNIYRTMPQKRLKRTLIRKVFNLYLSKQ
Chain of purified human, His-tagged PRC2 complex (Q09028 whole entry partner): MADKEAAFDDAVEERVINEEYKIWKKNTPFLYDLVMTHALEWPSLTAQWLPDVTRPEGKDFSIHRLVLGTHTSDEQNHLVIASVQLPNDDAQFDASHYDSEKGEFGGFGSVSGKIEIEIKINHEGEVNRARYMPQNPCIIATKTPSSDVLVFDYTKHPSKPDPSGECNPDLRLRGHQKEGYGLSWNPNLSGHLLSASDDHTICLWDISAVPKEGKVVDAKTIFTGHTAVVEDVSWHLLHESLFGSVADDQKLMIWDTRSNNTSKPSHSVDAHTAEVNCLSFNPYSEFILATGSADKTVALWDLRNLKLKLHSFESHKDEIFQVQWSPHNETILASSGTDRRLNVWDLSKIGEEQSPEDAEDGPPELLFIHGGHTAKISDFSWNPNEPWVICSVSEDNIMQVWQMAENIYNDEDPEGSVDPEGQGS
Take `N#Cc1cncc(-c2cnc(NCc3c(F)ccc4c3CCO4)n3cc(C#N)nc23)c1` [Example 95, 8-(5-cyanopyridin-3-yl)-5-(((5-fluoro-2,3-dihydrobenzofuran-4-yl)methyl)amino)imidazo[1,2-c]pyrimidine-2-carbonitrile]: the IC50 is less than 100 nM.
`CCn1cc(-c2cnc(NCc3c(F)ccc4c3CCO4)n3cc(C#N)nc23)cn1` [Example 119, 8-(1-ethyl-1H-pyrazol-4-yl)-5-(((5-fluoro-2,3-dihydrobenzofuran-4-yl)methyl)amino)imidazo[1,2-c]pyrimidine-2-carbonitrile] came in with a concentration for half-maximal inhibition (IC50) of 100 to 500 nM.
The figure for `Cc1ncccc1-c1cnc(NCc2c(F)ccc3c2CCO3)n2cc(C(N)=O)nc12` [Example 137, 5-(((5-fluoro-2,3-dihydrobenzofuran-4-yl)methyl)amino)-8-(2-methylpyridin-3-yl)imidazo[1,2-c]pyrimidine-2-carboxamide] is less than 100 nM; for `CN(C)Cc1c(F)cc(-c2cnc(NCc3c(F)ccc4c3CCO4)n3cc(C#N)nc23)cc1F` [Example 149, 8-(4-((dimethylamino)methyl)-3,5-difluorophenyl)-5-(((5-fluoro-2,3-dihydrobenzofuran-4-yl)methyl)amino)imidazo[1,2-c]pyrimidine-2-carbonitrile] it is 100 to 500 nM.
The figure for `N#Cc1cn2c(NCc3c(F)ccc4c3CCO4)ncc(-c3ccc(C(=O)O)cc3)c2n1` [Example 183, 4-(2-cyano-5-(((5-fluoro-2,3-dihydrobenzofuran-4-yl)methyl)amino)imidazo[1,2-c]pyrimidin-8-yl)benzoic acid] is less than 100 nM; for `N#Cc1cn2c(NCc3c(F)ccc4c3CCO4)ncc(-c3ccnn3C3CC3)c2n1` [Example 193, 8-(1-cyclopropyl-1H-pyrazol-5-yl)-5-(((5-fluoro-2,3-dihydrobenzofuran-4-yl)methyl)amino)imidazo[1,2-c]pyrimidine-2-carbonitrile] it is less than 100 nM.
The figure for `COc1cc(-c2cnc(NCc3c(F)ccc4c3CCO4)n3cc(C#N)nc23)c(F)cn1` [Example 123, 5-(((5-fluoro-2,3-dihydrobenzofuran-4-yl)methyl)amino)-8-(5-fluoro-2-methoxypyridin-4-yl)imidazo[1,2-c]pyrimidine-2-carbonitrile] is less than 100 nM; for `N#Cc1cn2c(NCc3c(F)ccc4c3CCO4)ncc(-c3ccc(C4CCN4)cc3)c2n1` (centres unmarked) [Example 226, 8-(4-(azetidin-2-yl)phenyl)-5-(((5-fluoro-2,3-dihydrobenzofuran-4-yl)methyl)amino)imidazo[1,2-c]pyrimidine-2-carbonitrile] it is 100 to 500 nM.
The molecule `CN(C)C(=O)c1ccc(-c2cnc(NCc3c(F)ccc4c3CCO4)n3cc(C#N)nc23)c(F)c1F` [Example 42, 4-(2-cyano-5-(((5-fluoro-2,3-dihydrobenzofuran-4-yl)methyl)amino)imidazo[1,2-c]pyrimidin-8-yl)-2,3-difluoro-N,N-dimethylbenzamide] had a 50% inhibitory concentration (IC50) of less than 100 nM.
The figure for `COC(=O)c1ccc(-c2cnc(NCc3c(F)ccc4c3CCO4)n3cc(C#N)nc23)cn1` [Example 166, methyl 5-(2-cyano-5-(((5-fluoro-2,3-dihydrobenzofuran-4-yl)methyl)amino)imidazo[1,2-c]pyrimidin-8-yl)picolinate] is less than 100 nM; for `COCCOc1ncc(-c2cnc(NCc3c(F)ccc4c3CCO4)n3cc(C#N)nc23)cn1` [Example 191, 5-(((5-fluoro-2,3-dihydrobenzofuran-4-yl)methyl)amino)-8-(2-(2-methoxyethoxy)pyrimidin-5-yl)imidazo[1,2-c]pyrimidine-2-carbonitrile] it is 100 to 500 nM; for `CN1CCCC1c1ccc(-c2cnc(NCc3c(F)ccc4c3CCO4)n3cc(C#N)nc23)cc1` (centres unmarked) [Example 160, 5-(((5-fluoro-2,3-dihydrobenzofuran-4-yl)methyl)amino)-8-(4-(1-methylpyrrolidin-2-yl)phenyl)imidazo[1,2-c]pyrimidine-2-carbonitrile] it is less than 100 nM.
`Cc1cc(S(C)(=O)=O)ccc1-c1cnc(NCc2c(F)ccc3c2CCO3)n2cc(C#N)nc12` [Example 87, 5-(((5-fluoro-2,3-dihydrobenzofuran-4-yl)methyl)amino)-8-(2-methyl-4-(methylsulfonyl)phenyl)imidazo[1,2-c]pyrimidine-2-carbonitrile] gave an IC50 of less than 100 nM.
With `Cc1cc(-c2cnc(NCc3c(F)ccc4c3CCO4)n3cc(C#N)nc23)ccc1CN(C)C` [Example 200, 8-(4-((dimethylamino)methyl)-3-methylphenyl)-5-(((5-fluoro-2,3-dihydrobenzofuran-4-yl)methyl)amino)imidazo[1,2-c]pyrimidine-2-carbonitrile], the 50% inhibitory concentration (IC50) was in the range of 100 to 500 nM.
The figure for `CC(=O)Nc1cc(-c2cnc(NCc3c(F)ccc4c3CCO4)n3cc(C#N)nc23)ccn1` [Example 131, N-(4-(2-cyano-5-(((5-fluoro-2,3-dihydrobenzofuran-4-yl)methyl)amino)imidazo[1,2-c]pyrimidin-8-yl)pyridin-2-yl)acetamide] is less than 100 nM; for `Cn1nc(C2CC2)cc1-c1cnc(NCc2c(F)ccc3c2CCO3)n2cc(C#N)nc12` [Example 144, 8-(3-cyclopropyl-1-methyl-1H-pyrazol-5-yl)-5-(((5-fluoro-2,3-dihydrobenzofuran-4-yl)methyl)amino)imidazo[1,2-c]pyrimidine-2-carbonitrile] it is less than 100 nM; for `N#Cc1cn2c(NCc3c(F)ccc4c3CCO4)ncc(-c3ccc(CN4CCC(F)(F)C4)cc3)c2n1` [Example 55, 8-(4-((3,3-difluoropyrrolidin-1-yl)methyl)phenyl)-5-(((5-fluoro-2,3-dihydrobenzofuran-4-yl)methyl)amino)imidazo[1,2-c]pyrimidine-2-carbonitrile] it is less than 100 nM.
The figure for `Cc1nc(C2CC2)ncc1-c1cnc(NCc2c(F)ccc3c2CCO3)n2cc(C(=O)O)nc12` [Example 7, 8-(2-cyclopropyl-4-methylpyrimidin-5-yl)-5-(((5-fluoro-2,3-dihydrobenzofuran-4-yl)methyl)amino)imidazo[1,2-c]pyrimidine-2-carboxylic acid] is less than 100 nM; for `Cc1c(-c2cnc(NCc3c(F)ccc4c3CCO4)n3cc(C#N)nc23)ccc(CN(C)C)c1F` [Example 85, 8-(4-((dimethylamino)methyl)-3-fluoro-2-methylphenyl)-5-(((5-fluoro-2,3-dihydrobenzofuran-4-yl)methyl)amino)imidazo[1,2-c]pyrimidine-2-carbonitrile] it is less than 100 nM.
The figure for `Cc1nn(C[C@H](C)O)c(C)c1-c1cnc(NCc2c(F)ccc3c2CCO3)n2cc(C#N)nc12` [Example 65, (S)-5-(((5-fluoro-2,3-dihydrobenzofuran-4-yl)methyl)amino)-8-(1-(2-hydroxypropyl)-3,5-dimethyl-1H-pyrazol-4-yl)imidazo[1,2-c]pyrimidine-2-carbonitrile] is 100 to 500 nM.
Molecule `CN(C)CCn1cc(-c2cnc(NCc3c(F)ccc4c3CCO4)n3cc(C#N)nc23)cn1` [Example 102, 8-(1-(2-(dimethylamino)ethyl)-1H-pyrazol-4-yl)-5-(((5-fluoro-2,3-dihydrobenzofuran-4-yl)methyl)amino)imidazo[1,2-c]pyrimidine-2-carbonitrile] displayed an IC50 of 100 to 500 nM.
In turn, `CN(C)Cc1ncc(-c2cnc(NCc3c(F)ccc4c3CCO4)n3cc(C#N)nc23)cn1` [Example 216, 8-(2-((dimethylamino)methyl)pyrimidin-5-yl)-5-(((5-fluoro-2,3-dihydrobenzofuran-4-yl)methyl)amino)imidazo[1,2-c]pyrimidine-2-carbonitrile] registered a concentration for half-maximal inhibition (IC50) of less than 100 nM.
The figure for `Cc1ccc(-c2cnc(NCc3c(F)ccc4c3CCO4)n3cc(C#N)nc23)c(C)c1` [Example 192, 8-(2,4-dimethylphenyl)-5-(((5-fluoro-2,3-dihydrobenzofuran-4-yl)methyl)amino)imidazo[1,2-c]pyrimidine-2-carbonitrile] is greater than 500 nM; for `N#Cc1cn2c(NCc3c(F)ccc4c3CCO4)ncc(-c3cccnc3CO)c2n1` [Example 148, 5-(((5-fluoro-2,3-dihydrobenzofuran-4-yl)methyl)amino)-8-(2-(hydroxymethyl)pyridin-3-yl)imidazo[1,2-c]pyrimidine-2-carbonitrile] it is less than 100 nM.
The figure for `N#Cc1cn2c(NCc3c(F)ccc4c3CCO4)ncc(-c3ccc4c(c3)CNC4)c2n1` [Example 205, 5-(((5-fluoro-2,3-dihydrobenzofuran-4-yl)methyl)amino)-8-(isoindolin-5-yl)imidazo[1,2-c]pyrimidine-2-carbonitrile] is 100 to 500 nM.
The figure for `N#Cc1cn2c(NCc3c(F)ccc4c3CCO4)ncc(-c3ccc(CO)nc3)c2n1` [Example 147, 5-(((5-fluoro-2,3-dihydrobenzofuran-4-yl)methyl)amino)-8-(6-(hydroxymethyl)pyridin-3-yl)imidazo[1,2-c]pyrimidine-2-carbonitrile] is 100 to 500 nM.
On to `N#Cc1cn2c(NCc3c(F)ccc4c3CCO4)ncc(-c3cccc(C(=O)O)c3)c2n1` [Example 174, 3-(2-cyano-5-(((5-fluoro-2,3-dihydrobenzofuran-4-yl)methyl)amino)imidazo[1,2-c]pyrimidin-8-yl)benzoic acid], for which the concentration for half-maximal inhibition (IC50) is less than 100 nM.
On to `CN(C)C(=O)c1c(F)cc(-c2cnc(NCc3c(F)ccc4c3CCO4)n3cc(C#N)nc23)cc1F` [Example 45, 4-(2-cyano-5-(((5-fluoro-2,3-dihydrobenzofuran-4-yl)methyl)amino)imidazo[1,2-c]pyrimidin-8-yl)-2,6-difluoro-N,N-dimethylbenzamide], for which the concentration for half-maximal inhibition (IC50) was less than 100 nM.
The figure for `N#Cc1cn2c(NCc3c(F)ccc4c3CCO4)ncc(-c3n[nH]cc3Br)c2n1` [Example 232, 8-(4-bromo-1H-pyrazol-3-yl)-5-(((5-fluoro-2,3-dihydrobenzofuran-4-yl)methyl)amino)imidazo[1,2c]pyrimidine-2-carbonitrile] is 100 to 500 nM.

For orientation: IC50 means the concentration that gives 50% inhibition.
